In test [1] the test system is Plasmodium falciparum 3D7 strain. As to the kind of experiment: In vitro antiplasmodial activity against chloroquine-susceptible 3D7 strain. Type of test: cell-based.
Test [2] concerns rat microglia TXB2 generation. The note with it: read-out: TXB2 generation apparent IC50; cited from earlier work.

`CCN(CC)CCCC(C)Nc1ccnc2cc(Cl)ccc12` (stereo not drawn) [CQ, chloroquine]: the IC50 in test [1] (Plasmodium falciparum, 3D7, read-out: 3D7 IC50 ± SE) is 6.6 ± 0.0008 nM.

As to `[C-]#[N+]C(C)(C)C[C@@H]1C[C@H](C)[C@H]2CC[C@H](C)[C@@]3([N+]#[C-])CCC(=C)[C@@H]1[C@H]23` [Compound 3, 8,15-diisocyano-11(20)-amphilectene], the “Fold more active than the standard drug CQ (3D7)” value in test [1] (antiplasmodial IC50 compared with chloroquine) is given as 5.5 times.

As to `CC(C(=O)O)c1ccc(-c2ccccc2)c(F)c1` (stereo not drawn) [flurbiprofen], the IC50 in test [2] is 100 nM.

Values taken from paper PMC4815915 (Bioorganic & medicinal chemistry letters, 2015).
